MIC and EC50 data for eight molecules are collected here from patent publication US20240270762A1, “PENICILLIN-BINDING PROTEIN INHIBITORS” (priority 2021, published 2024).

Molecules are shown by their SMILES. ≈ marks a conversion by molar mass, not a printed value.

For test [1], the system named is P. aeruginosa CDC-0054. Nature of the test: microbe, parasite or virus in culture. It is filed as cell-based. Conditions: Pseudomonas aeruginosa, CDC0054, read-out: Minimum inhibitory concentration, P. aeruginosa CDC-0054.
Test [2] has as its system P. aeruginosa CDC-0110. Put plainly: microbe, parasite or virus in culture. It is filed as cell-based. Conditions: Pseudomonas aeruginosa, CDC0110, read-out: Minimum inhibitory concentration, P. aeruginosa CDC-0110.
Test [3] has as its system P. aeruginosa ATCC 27853. Put plainly: microbe, parasite or virus in culture. Conditions: Pseudomonas aeruginosa, ATCC27853, read-out: Minimum inhibitory concentration, P. aeruginosa ATCC 27853. It is filed as cell-based.
Test [4] relates to A. baumannii CDC-0045. Nature of the test: microbe, parasite or virus in culture. Conditions: Acinetobacter baumannii, CDC0045, read-out: MIC, A. baumannii CDC-0045. In kind it is cell-based.
Test [5] has as its system A. baumannii 1258916. Put plainly: microbe, parasite or virus in culture. In kind it is cell-based, Acinetobacter baumannii. The settings on record: Acinetobacter baumannii, 1258916, read-out: MIC, A. baumannii 1258916.
The test system of test [6] is A. baumannii CDC-0083. Put plainly: microbe, parasite or virus in culture. In kind it is cell-based. Conditions: Acinetobacter baumannii, CDC0083, read-out: MIC, A. baumannii CDC-0083.
Test [7] concerns B. humptydooensis ATCC BAA-2767. Put plainly: microbe, parasite or virus in culture. It is filed as cell-based. The settings on record: Burkholderia humptydooensis, ATCCBAA2767, read-out: Minimum inhibitory concentration (MIC), B. humptydooensis ATCC BAA-2767.
In test [8] the test system is A. baumannii ATCC 17978. Nature of the test: microbe, parasite or virus in culture. In kind it is cell-based. Conditions: Acinetobacter baumannii, ATCC17978, read-out: MIC, A. baumannii ATCC 17978.
Test [9] relates to P. aeruginosa (ΔmexAB-oprM). Put plainly: Broth microdilution MIC in iron-depleted CAMHB (IDM). The settings on record: Pseudomonas aeruginosa; iron-depleted CAMHB (IDM); […]; read-out: Minimum inhibitory concentration, P. aeruginosa ΔmexAB-oprM. In kind it is cell-based. (Broth dilution looks for growth in wells or tubes with falling amounts of substance.)
In test [10] the test system is A. baumannii ATCC 19606. Nature of the test: microbe, parasite or virus in culture. The settings on record: Acinetobacter baumannii, ATCC19606, read-out: MIC, A. baumannii ATCC 19606. In kind it is cell-based.
In test [11] the test system is A. baumannii CDC-0036. Nature of the test: microbe, parasite or virus in culture. Conditions: Acinetobacter baumannii, CDC0036, read-out: MIC, A. baumannii CDC-0036. It is filed as cell-based.
Test [12] addresses T1, A. baumannii PBP1a (Acinetobacter baumannii, UniProt A0ABX6CK30).
T1 sequence (A0ABX6CK30 1-851): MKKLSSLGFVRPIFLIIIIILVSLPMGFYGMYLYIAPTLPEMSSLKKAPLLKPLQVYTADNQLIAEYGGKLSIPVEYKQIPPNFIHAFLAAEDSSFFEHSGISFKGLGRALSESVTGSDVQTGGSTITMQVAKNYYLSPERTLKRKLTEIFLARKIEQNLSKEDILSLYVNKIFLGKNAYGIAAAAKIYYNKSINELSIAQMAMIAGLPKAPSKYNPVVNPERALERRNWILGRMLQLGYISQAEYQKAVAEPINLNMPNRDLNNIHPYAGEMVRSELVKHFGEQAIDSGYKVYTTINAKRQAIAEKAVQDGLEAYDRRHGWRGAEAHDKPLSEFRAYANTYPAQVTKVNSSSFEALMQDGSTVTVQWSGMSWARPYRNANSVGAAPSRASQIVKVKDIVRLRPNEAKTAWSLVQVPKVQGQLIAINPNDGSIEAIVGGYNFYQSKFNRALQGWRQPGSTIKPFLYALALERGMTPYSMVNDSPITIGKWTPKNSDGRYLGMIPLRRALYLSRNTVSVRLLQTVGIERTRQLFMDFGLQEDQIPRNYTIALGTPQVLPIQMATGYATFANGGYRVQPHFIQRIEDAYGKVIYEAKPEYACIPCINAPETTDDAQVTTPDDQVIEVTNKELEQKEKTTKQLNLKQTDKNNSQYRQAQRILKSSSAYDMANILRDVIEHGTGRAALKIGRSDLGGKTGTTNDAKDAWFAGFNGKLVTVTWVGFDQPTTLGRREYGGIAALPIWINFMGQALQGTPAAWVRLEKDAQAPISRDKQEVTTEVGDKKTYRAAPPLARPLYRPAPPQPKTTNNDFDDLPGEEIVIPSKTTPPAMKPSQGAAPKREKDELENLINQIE
Nature of the test: Bocillin-FL competition binding via gel filtration, A. baumannii PBP1a. Conditions: competition binding assay using Bocillin-FL via gel filtration; read-out: A. baumannii PBP1a Potency. In a few lines:
(§1)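 Enzyme pre-incubated with increasing inhibitor concentrations, then Bocillin-FL added for 15 min further incubation. Bocillin-FL-bound PBP separated by gel filtration and fluorescence read. EC50 from fitting fraction PBP bound vs inhibitor concentration to a Hill-type equation (ymin, ymax, n).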
On the technique in general: Size exclusion chromatography separates by hydrodynamic size, large species first.

In test [13] the target is A. baumannii PBP2 (Acinetobacter baumannii, UniProt D0C8Z9). Put plainly: Bocillin-FL competition binding via gel filtration, A. baumannii PBP2. In a few lines: as §1
Chain of A. baumannii PBP2 (D0C8Z9 whole entry): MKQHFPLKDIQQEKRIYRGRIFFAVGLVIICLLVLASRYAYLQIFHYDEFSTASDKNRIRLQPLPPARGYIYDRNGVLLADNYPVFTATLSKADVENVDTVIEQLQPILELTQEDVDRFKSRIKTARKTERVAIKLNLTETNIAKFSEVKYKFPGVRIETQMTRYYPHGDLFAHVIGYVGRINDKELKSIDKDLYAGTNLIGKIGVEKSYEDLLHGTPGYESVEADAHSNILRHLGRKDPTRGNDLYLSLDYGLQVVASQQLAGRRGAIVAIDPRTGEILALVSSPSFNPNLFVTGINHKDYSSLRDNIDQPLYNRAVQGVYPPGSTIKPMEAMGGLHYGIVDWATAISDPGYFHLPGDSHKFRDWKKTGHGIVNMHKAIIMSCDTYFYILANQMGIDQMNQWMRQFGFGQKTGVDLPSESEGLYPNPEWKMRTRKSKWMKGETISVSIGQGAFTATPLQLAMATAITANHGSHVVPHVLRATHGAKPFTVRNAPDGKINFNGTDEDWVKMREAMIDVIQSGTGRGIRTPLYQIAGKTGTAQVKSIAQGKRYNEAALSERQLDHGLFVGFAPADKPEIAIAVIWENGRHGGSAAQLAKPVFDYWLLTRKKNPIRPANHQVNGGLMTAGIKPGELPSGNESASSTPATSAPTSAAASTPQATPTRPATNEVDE

Regarding `O=C(NCCCN1CCN(C(=O)N[C@H](C(=O)N[C@H]2Cc3ccc(F)c(C(=O)O)c3OB2O)c2cc(F)c(O)c(O)c2Cl)C(=O)C1=O)c1cccc(O)c1Cl` [Example 302, (R)-3-((S)-2-(4-(3-(2-chloro-3-hydroxybenzamido)propyl)-2,3-dioxopiperazine-1-carboxamido)-2-(2-chloro-5-fluoro-3,4-dihydroxyphenyl)acetamido)-7-fluoro-2-hydroxy-3,4-dihydro-2H-benzo[e][1,2]oxaborinine-8-carboxylic acid], the MIC is 32 to 64 µg/mL (≈ 40.3 to 80.6 µM) in test [1]; more than 128 µg/mL in test [2]; 32 to 64 µg/mL (≈ 40.3 to 80.6 µM) in [3]; more than 128 µg/mL in [4]; more than 128 µg/mL in [5]; more than 128 µg/mL in test [6]. Also, the MIC in [7] was more than 128 µg/mL; in test [8], 2 to 4 µg/mL (≈ 2.52 to 5.04 µM); in test [9] it was 2 to 4 µg/mL (≈ 2.52 to 5.04 µM); in [10], 32 to 64 µg/mL (≈ 40.3 to 80.6 µM); in test [11] it was more than 128 µg/mL.
Regarding `O=C(NCCCN1CCN(C(=O)N[C@H](C(=O)N[C@H]2Cc3ccc(F)c(C(=O)O)c3OB2O)c2cc(F)c(O)c(O)c2Cl)C(=O)C1=O)c1ccnc(F)c1F` [Example 299, (R)-3-((S)-2-(2-chloro-5-fluoro-3,4-dihydroxyphenyl)-2-(4-(3-(2,3-difluoroisonicotinamido)propyl)-2,3-dioxopiperazine-1-carboxamido)acetamido)-7-fluoro-2-hydroxy-3,4-dihydro-2H-benzo[e][1,2]oxaborinine-8-carboxylic acid], the MIC in [1] was 2 to 4 µg/mL (≈ 2.56 to 5.12 µM); in test [2], 8 to 16 µg/mL (≈ 10.2 to 20.5 µM); in test [3] it was 8 to 16 µg/mL (≈ 10.2 to 20.5 µM); in [4], more than 128 µg/mL; in test [5], 8 to 16 µg/mL (≈ 10.2 to 20.5 µM); in [6], 2 to 4 µg/mL (≈ 2.56 to 5.12 µM). Also, the MIC in test [7] is more than 128 µg/mL; in test [8] it was less than 1 µg/mL; in [9], 2 to 4 µg/mL (≈ 2.56 to 5.12 µM); in test [10], 2 to 4 µg/mL (≈ 2.56 to 5.12 µM); in test [11], 32 to 64 µg/mL (≈ 41 to 82 µM).
Turning to `O=C(NCCCN1CCN(C(=O)NC(C(=O)N[C@H]2Cc3ccc(F)c(C(=O)O)c3OB2O)c2cc(F)c(O)c(O)c2Cl)C1=O)c1cccnc1` (stereo partly drawn) [Example 281, (3R)-3-(2-(2-chloro-5-fluoro-3,4-dihydroxyphenyl)-2-(3-(3-(nicotinamido)propyl)-2-oxoimidazolidine-1-carboxamido)acetamido)-7-fluoro-2-hydroxy-3,4-dihydro-2H-benzo[e][1,2]oxaborinine-8-carboxylic acid], the MIC is 8 to 16 µg/mL (≈ 11.2 to 22.3 µM) in [1]; 2 to 4 µg/mL (≈ 2.79 to 5.58 µM) in test [2]; 2 to 4 µg/mL (≈ 2.79 to 5.58 µM) in test [3]; less than 1 µg/mL in test [4]; less than 1 µg/mL in test [5]; 8 to 16 µg/mL (≈ 11.2 to 22.3 µM) in test [6]. Further, the MIC in test [7] was less than 1 µg/mL; in test [8], less than 1 µg/mL; in test [9], less than 1 µg/mL; in test [10] it was less than 1 µg/mL; in [11] it was 2 to 4 µg/mL (≈ 2.79 to 5.58 µM).
Consider `O=C(NCCCS(=O)(=O)N1CCN(C(=O)NC(C(=O)N[C@H]2Cc3ccc(F)c(C(=O)O)c3OB2O)c2cc(F)c(O)c(O)c2Cl)C1=O)Nc1ccncc1` (stereo partly drawn) [Example 291, (3R)-3-(2-(2-chloro-5-fluoro-3,4-dihydroxyphenyl)-2-(2-oxo-3-((3-(3-(pyridin-4-yl)ureido)propyl)sulfonyl)imidazolidine-1-carboxamido)acetamido)-7-fluoro-2-hydroxy-3,4-dihydro-2H-benzo[e][1,2]oxaborinine-8-carboxylic acid], for which the MIC in test [1] is 2 to 4 µg/mL (≈ 2.51 to 5.03 µM); in [2] it was 2 to 4 µg/mL (≈ 2.51 to 5.03 µM); in [3], 2 to 4 µg/mL (≈ 2.51 to 5.03 µM); in test [4], 2 to 4 µg/mL (≈ 2.51 to 5.03 µM); in test [5] it was less than 1 µg/mL; in test [6], less than 1 µg/mL. Besides, the MIC was less than 1 µg/mL in test [7]; less than 1 µg/mL in test [8]; less than 1 µg/mL in test [9]; less than 1 µg/mL in test [10]; 2 to 4 µg/mL (≈ 2.51 to 5.03 µM) in test [11].
As for `O=C(NCCCN1CCN(C(=O)N[C@H](C(=O)N[C@H]2Cc3ccc(F)c(C(=O)O)c3OB2O)c2cc(F)c(O)c(O)c2Cl)C(=O)C1=O)c1ccc(O)cc1Cl` (single isomer, unassigned) [Example 470], the MIC is less than 1 µg/mL in [1]; 8 to 16 µg/mL (≈ 10.1 to 20.1 µM) in test [2]; 2 to 4 µg/mL (≈ 2.52 to 5.04 µM) in test [3]; more than 128 µg/mL in test [4]; more than 128 µg/mL in test [5]; more than 128 µg/mL in test [6]. Also, the MIC in test [7] is 8 to 16 µg/mL (≈ 10.1 to 20.1 µM); in [8] it was less than 1 µg/mL; in test [9], less than 1 µg/mL; in test [10] it was 8 to 16 µg/mL (≈ 10.1 to 20.1 µM); in test [11], 32 to 64 µg/mL (≈ 40.3 to 80.6 µM).
For `O=C(NCCS(=O)(=O)N1CCN(C(=O)NC(C(=O)N[C@H]2Cc3ccc(F)c(C(=O)O)c3OB2O)c2cc(F)c(O)c(O)c2Cl)C1=O)c1ccncc1` (stereo partly drawn) [Example 288, (3R)-3-(2-(2-chloro-5-fluoro-3,4-dihydroxyphenyl)-2-(3-((2-(isonicotinamido)ethyl)sulfonyl)-2-oxoimidazolidine-1-carboxamido)acetamido)-7-fluoro-2-hydroxy-3,4-dihydro-2H-benzo[e][1,2]oxaborinine-8-carboxylic acid], the MIC was 2 to 4 µg/mL (≈ 2.61 to 5.22 µM) in test [1]; 2 to 4 µg/mL (≈ 2.61 to 5.22 µM) in [2]; 2 to 4 µg/mL (≈ 2.61 to 5.22 µM) in test [3]; less than 1 µg/mL in [4]; less than 1 µg/mL in test [5]; less than 1 µg/mL in test [6]. Moreover, the MIC was 2 to 4 µg/mL (≈ 2.61 to 5.22 µM) in [7]; less than 1 µg/mL in [8]; less than 1 µg/mL in test [9]; less than 1 µg/mL in test [10]; 2 to 4 µg/mL (≈ 2.61 to 5.22 µM) in [11].
For `CS(=O)(=O)N1CCN(C(=O)N[C@@H](C(=O)N[C@H]2Cc3cccc(C(=O)O)c3OB2O)c2ccc(P(=O)(O)O)cc2)C1=O` (single isomer, unassigned) [Example 6], the MIC in test [1] was more than 128 µg/mL; in test [2] it was 32 to 64 µg/mL (≈ 52.4 to 105 µM); in [3], 32 to 64 µg/mL (≈ 52.4 to 105 µM); in [4], more than 128 µg/mL; in test [5] it was 32 to 64 µg/mL (≈ 52.4 to 105 µM); in test [6] it was more than 128 µg/mL. Also, the MIC in test [7] fell in the range of 2 to 4 µg/mL (≈ 3.28 to 6.55 µM); in [8] it was 2 to 4 µg/mL (≈ 3.28 to 6.55 µM); in test [9], 8 to 16 µg/mL (≈ 13.1 to 26.2 µM); in test [10] it was 8 to 16 µg/mL (≈ 13.1 to 26.2 µM); in test [11], 32 to 64 µg/mL (≈ 52.4 to 105 µM).
Consider `O=C(O)c1c(F)ccc2c1OB(O)[C@@H](NC(=O)C(NC(=O)N1CCN(C3CCN(C(=O)Cc4cccc(O)c4)CC3)C(=O)C1=O)c1cc(F)c(O)c(O)c1Cl)C2` (stereo partly drawn) [Example 474, (3R)-3-(2-(2-chloro-5-fluoro-3,4-dihydroxyphenyl)-2-(4-(1-(2-(3-hydroxyphenyl)acetyl)piperidin-4-yl)-2,3-dioxopiperazine-1-carboxamido)acetamido)-7-fluoro-2-hydroxy-3,4-dihydro-2H-benzo[e][1,2]oxaborinine-8-carboxylic acid], for which the MIC was less than 1 µg/mL in test [1]; less than 1 µg/mL in test [2]; 2 to 4 µg/mL (≈ 2.5 to 5 µM) in [3]; less than 1 µg/mL in test [4]; less than 1 µg/mL in test [5]; less than 1 µg/mL in test [7]. The MIC in test [8], in test [9], in [10] and in test [11] was less than 1 µg/mL throughout. In addition, the EC50 in test [12] is 10 to 50 µM; in [13], less than 10 µM.
